# Measurements reported in patent US11970469B2 (Oxford University Innovation Limited, priority 2018, dated 2024).
# Tests used:
# [1] = tested on: DLD1 cells (ATCC CCL-221); assay: Cell viability assay, DLD-1 (CellTiter-Glo); format: cell-based; details: DLD-1 cells; for effect on DLD-1 viability over the range of concentrations: 72 hour, 5, 10, 15, 20 μM (FIG. 1); for IC50: Homo sapiens, 72 h, dose response 5, 10, 15, 20 μM
# Description: DLD1 cells (ATCC CCL-221) are cultured in RPMI-1640 medium plus 10% foetal calf serum and 2 mM L-glutamine at 37° C. 5% CO2. Cells are plated onto white clear bottom 96-well plates (5000 cells/well in 200 μl media) and left to adhere overnight at 37° C., 5% CO2. Next day, test compound (1 μl at 200× concentration in 100% DMSO) is added to give final test compound concentration 1× in 0.5% DMSO. After 72 h of incubation at 37° C. 5% CO2, 20 μl CellTiter-Glo reagent (Promega G7572) is added into each well. Plates are incubated at room temperature with shaking for 30 min and then luminescence is read using a PheraStar plate reader. The concentration of compounds that decrease cell viability by 50% is calculated from dose response curves generated using Dotmatics data analysis software Results
# RASG12D/CRAF FL = assay: BRET2 cell assay with BRET-based RAS biosensor (RAS-effector) in HEK293T; details: 10 uM compound, 20 hours
# Description: 650,000 HEK293T were seeded in each well of a 6 well plate. 24 hours later, cells were transfected with an appropriated BRET-based RAS biosensor (i.e. RAS-effector) using Lipofectamine 2000 transfection reagent (Thermo-Fisher). Cells were detached 24 hours later and washed with PBS and seeded in a white 96 well plate (clear bottom, PerkinElmer, cat #6005181) in OptiMEM no phenol red medium (Life Technologies) complemented with 4% FBS. Cells were left for 4 hours at 37° C. before adding compounds. Stock compounds were held at 10 mM in 100% DMSO and diluted in OptiMEM no red phenol+4% FBS to reach 10× the final concentration (2% DMSO for each concentration). The final concentrations in the cells were 0, 5, 10 and 20 μM (therefore the intermediate 10× concentrations were 0, 50, 100 and 200 μM. 10 μL of 10× compounds were added in each well of the 96 well plate to 0, 5, 10 and 20 μM final concentrations (with final 0.2% DMSO each). Quadruplicates were performed for each point. Cells were left for an additional 20 hours at 37° C. before the BRET2 signal reading directly after addition of Coelenterazine 400a substrate (10 μM final) to cells (Cayman Chemicals, cat #16157). BRET2 reading was carried out on an Envision instrument (2103 Multilabel Reader, PerkinElmer) with the BRET2 Dual Emission optical module (515 nm±30 and 410 nm±80; PerkinElmer).
# [2] = biological target: GST-human KRas166 (G12V) GPPNHP (Homo sapiens, UniProt P01116, G12V); assay: KRas small-molecule screening by SPR (BIACORE T200); format: binding; design: made in house; host or cells: E. coli C41(DE3); key: SPR response units (RU); details: compounds at final concentration of 100 uM; immobilised KRAS166 (G12V) GPPNHP; no unit printed (method speaks of response units)
# Description: For SPR assays pGEX-KRAS(G12V) plasmid was transformed into E. coli C41(DE3). Bacterial cells were cultured at 37° C. to an OD600 of 0.6 and induced with IPTG (final 0.1 mM) at 18° C. over night. The GST fusion proteins were extracted from bacteria pellets after cell disruption in 140 mM NaCl, 2.7 mM KCl, 10 mM NaH2PO4, 1.8 mM KH2PO4, 1 mM EDTA, 2 mM MgCl2 pH 7.4 and purified by glutathione-sepharose column chromatography (GE Healthcare), eluting with 50 mM Tris-HCl pH8.0, 10 mM reduced glutathione, 1 mM DTT, 2 mM MgCl2. The eluted proteins were dialysed against 50 mM Tris-HCl pH8.0, 1 mM DTT, 2 mM MgCl2 and concentrated to 10 mg/ml using a Biomax-30 ULTRAFREE-15 centrifugal filter device (Millipore). Purified KRAS protein was loaded with GPPNHP as described elsewhere (Pacold et al., 2000). Loaded protein was then purified by gel filtration on a HiLoad Superdex-75 HR column (GE Healthcare) in 1×PBS pH7.4, 5 mM MgCl2 and concentrated for storage. Protocol for KRas small-molecule screening and affinity measurements by SPR
# To a previously immobilized CM5 chip (GE Healthcare BR-1005-30) with anti GST antibody via amine coupling method, GST in channel 1 and GST-human KRas166 (G12V) GPPNHP in channel 2 were immobilised. GST was immobilised between 2,000 and 5,000 Response units. KRAS166 (G12V) was immobilized between 10,000 to 15,000 Response Units.
# In a 96 well plate, compounds were diluted in […], 5 mM MgCl2 and 5% DMSO Buffer to a final concentration of 100 uM. DCAI was used as positive control. Experiment also included a solvent correction curve for 5% DMSO. Screening and evaluation of the protein immobilization and the compounds screening was done accordingly to the BIACORE T200 control and evaluation software.
# Calculations for how many response units are required for a 1:1 ratio of compound/protein interaction are shown below. • Protein immobilisation: 10,000 RU; average fragment 300 Da in size. Rmax=(MWA/MWL)×RL×SM • MWA is the molecular weight of the analyte in Da • MWL is the molecular weight of the ligand in Da • RL is the immobilization level in RU • SM is the molar stoichiometry (assume 1:1) • Rmax=300/47,500×10,000×1 • Rmax=63 RU. BRET2 Cell Assay
Compound,IC50 [1] [µM],SPR [2],effect on DLD-1 viability over the range of concentrations [1],BRET RASG12D/CRAF FL % Inhibition (10 uM) (RASG12D/CRAF FL) [%]
"O=C(NCC1COc2ccccc2O1)c1ccco1 (centres unmarked) [Abd-2, reference compound]",–,–,does not affect DLD-1 viability,–
"COc1nc(-c2cccc3c2OCCO3)ccc1Nc1ccc(CN(C)C)cc1 [Abd-7, reference compound]",8.2,–,–,–
"COc1cccc(-c2ccc(Nc3ccc(CN(C)C)cc3)cc2)c1 [Example 1, N-(4-((dimethylamino)methyl)phenyl)-3′-methoxy-[1,1′-biphenyl]-4-amine]",5.3,230,–,24
"COc1cccc(-c2ccc(Nc3ccc(CN(C)C)cc3)c(OC)c2)c1 [Example 2, N-(4-((dimethylamino)methyl)phenyl)-3,3′-dimethoxy-[1,1′-biphenyl]-4-amine]",7.2,233,–,18
"COc1cccc(-c2ccc(Nc3ccc(CN(C)C)cc3)c(OC)c2F)c1 [Example 3, N-(4-((dimethylamino)methyl)phenyl)-2-fluoro-3,3′-dimethoxy-[1,1′-biphenyl]-4-amine]",4.5,177,–,26
"COc1cc(-c2ccc(Nc3ccc(CN(C)C)cc3)cc2)ccc1F [Example 4, N-(4-((dimethylamino)methyl)phenyl)-4′-fluoro-3′-methoxy-[1,1′-biphenyl]-4-amine]",–,80,–,24
"COc1cc(-c2ccc(Nc3ccc(CN(C)C)cc3)cc2)cc(F)c1F [Example 5, N-(4-((dimethylamino)methyl)phenyl)-3′,4′-difluoro-5′-methoxy-[1,1′-biphenyl]-4-amine]",–,127,–,33
"COc1cc(F)cc(-c2ccc(Nc3ccc(CN(C)C)cc3)cc2)c1 [Example 6, N-(4-((dimethylamino)methyl)phenyl)-3′-fluoro-5′-methoxy-[1,1′-biphenyl]-4-amine]",–,245,–,22
"COc1cc(C)cc(-c2ccc(Nc3ccc(CN(C)C)cc3)cc2)c1 [Example 7, N-(4-((dimethylamino)methyl)phenyl)-3′-methoxy-5′-methyl-[1,1′-biphenyl]-4-amine]",–,264,–,6
"COc1cccc(-c2ccc(Nc3cc(C)cc(C)c3)c(OC)c2F)c1 [Example 8, N-(3,5-dimethylphenyl)-2-fluoro-3,3′-dimethoxy-[1,1′-biphenyl]-4-amine]",–,30,–,0
"COc1cccc(-c2ccc(Nc3cc(C)cc(C)c3)cc2)c1 [Example 9, N-(3,5-dimethylphenyl)-3′-methoxy-[1,1′-biphenyl]-4-amine]",–,28,–,2
"COc1cccc(-c2ccc(Nc3cc(C(=O)N(C)C)ccc3C)cc2)c1 [Example 10, 3-((3′-methoxy-[1,1′-biphenyl]-4-yl)amino)-N,N,4-trimethylbenzamide]",–,28,–,0
"COc1cccc(-c2cccc(CC3(C(=O)NCCn4ccnc4)CCOCC3)c2)c1 [PPIN-2, reference compound]",–,–,does not affect DLD-1 viability,–
"N-(3-((2,6-dimethylmorpholino)methyl)phenyl)-3′-methoxy-[1,1′-biphenyl]-4-amine [Example 13]",–,43,–,9

# Continued, in another order:
IC50 [1] [µM],SPR [2],Compound,effect on DLD-1 viability over the range of concentrations [1],BRET RASG12D/CRAF FL % Inhibition (10 uM) (RASG12D/CRAF FL) [%]
–,69,"COc1cccc(-c2ccc(Nc3cc(CN(C)C)ccc3C)cc2)c1 [Example 11, N-(5-((dimethylamino)methyl)-2-methylphenyl)-3′-methoxy-[1,1′-biphenyl]-4-amine]",–,1
–,55,"COc1cccc(-c2ccc(Nc3cccc(CN4CC(C)OC(C)C4)c3)cc2)c1 (centres unmarked) [Example 12, N-(3-((2,6-dimethylmorpholino)methyl)phenyl)-3′-methoxy-[1,1′-biphenyl]-4-amine]",–,0
–,152,"COc1cccc(-c2ccc(Nc3ccc(CN(C)C)cc3)c(OC)n2)c1 [Example 14, N-(4-((dimethylamino)methyl)phenyl)-2-methoxy-6-(3-methoxyphenyl)pyridin-3-amine]",–,42
–,84,"COc1cccc(-c2ccc(Nc3cccc(CN(C)C)c3)c(OC)n2)c1 [Example 15, N-(3-((dimethylamino)methyl)phenyl)-2-methoxy-6-(3-methoxyphenyl)pyridin-3-amine]",–,35
–,209,"COc1cccc(-c2ccc(Nc3ccc(CN(C)C)cc3)cn2)c1 [Example 16, N-(4-((dimethylamino)methyl)phenyl)-6-(3-methoxyphenyl)pyridin-3-amine]",–,0
–,396,"COc1cccc(-c2ccc(Nc3cccc(C(=O)NCC4CCNCC4)c3)cc2)c1 [Example 17, 3-((3′-methoxy-[1,1′-biphenyl]-4-yl)amino)-N-(piperidin-4-ylmethyl)benzamide]",–,–
–,119,"COc1cc(-c2ccc(Nc3ccc(CN(C)C)cc3)cc2)ccc1C [Example 18, N-(4-((dimethylamino)methyl)phenyl)-3′-methoxy-4′-methyl-[1,1′-biphenyl]-4-amine]",–,13
–,1426,"COc1cccc(-c2ccc(Nc3ccc(C(=O)NCC4CCNCC4)cc3)cc2)c1 [Example 20, 4-((3′-methoxy-[1,1′-biphenyl]-4-yl)amino)-N-(piperidin-4-ylmethyl)benzamide]",–,–
–,1583,"COc1cccc(-c2ccc(Nc3ccc(C(=O)NCC4CCN(C)CC4)cc3)cc2)c1 [Example 21, 4-((3′-methoxy-[1,1′-biphenyl]-4-yl)amino)-N-((1-methylpiperidin-4-yl)methyl)benzamide]",–,–
–,99,"COc1cccc(-c2ccc(Nc3ccc(C(=O)NCC4CCN(Cc5ccccc5)CC4)cc3)cc2)c1 [Example 23, N-((1-benzylpiperidin-4-yl)methyl)-4-((3′-methoxy-[1,1′-biphenyl]-4-yl)amino)benzamide]",–,–
